# Measurements taken from patent US20100317647A1 (priority 2009, published 2010).
# Biological target: human Cat S (Homo sapiens, UniProt P25774)
# Assay: Cathepsin enzyme inhibition assay (fluorogenic peptide substrate cleavage)
# Format: biochemical
# Conditions: human Cat S 1 nM; substrate Z-Val-Val-Arg-AMC 20 μM; pH 6.5; fluorescence over 20 minutes
# Method in brief: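 IC50 values derived from fluorescence increase (ex 360 nm, em 465 nm) monitored for 20 minutes after substrate addition. Enzyme held at 1 nM with 20 μM Z-Val-Val-Arg-AMC, in pH 6.5 potassium phosphate buffer containing DTT, EDTA and Triton X-100.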
# Sequence of human Cat S (P25774 115-331): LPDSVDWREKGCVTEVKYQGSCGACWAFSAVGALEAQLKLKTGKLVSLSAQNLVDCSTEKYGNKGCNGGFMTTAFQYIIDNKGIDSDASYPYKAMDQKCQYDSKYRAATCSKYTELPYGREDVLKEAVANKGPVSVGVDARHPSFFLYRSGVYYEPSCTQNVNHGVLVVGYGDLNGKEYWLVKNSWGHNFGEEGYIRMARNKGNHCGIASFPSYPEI
row,IC50 [nM],SMILES
1,0.215,"Cn1nccc1-c1ccc(S(=O)(=O)[C@@H]2C[C@@H](C(=O)NC3(C#N)CC3)[C@H](C(=O)N3CCC(F)(F)C3)C2)c(Cl)c1 [Example 196, (1R,2R,4R)-4-[2-Chloro-4-(2-methyl-2H-pyrazol-3-yl)-benzenesulfonyl]-2-(3,3-difluoro-pyrrolidine-1-carbonyl)-cyclopentanecarboxylic acid (1-cyano-cyclopropyl)-amide]"
2,0.587,"CO[C@@H]1C[C@H](S(=O)(=O)c2ccc(-c3cnn(CCO)c3)cc2C(F)(F)F)C[C@H]1C(=O)NC1(C#N)CC1 (racemic) [Example 170, (1R,2R,4R) and (1S,2S,4S)-4-{4-[1-(2-Hydroxy-ethyl)-1H-pyrazol-4-yl]-2-trifluoromethyl-benzenesulfonyl}-2-methoxy-cyclopentanecarboxylic acid (1-cyano-cyclopropyl)-amide]"
3,1.07,"N#CC1(NC(=O)[C@@H]2C[C@@H](S(=O)(=O)c3ccc(Br)cc3Cl)C[C@H]2C(=O)N2CCC(F)(F)C2)CC1 [Example 187, (1R,2R,4R)-4-(4-Bromo-2-chloro-benzenesulfonyl)-2-(3,3-difluoro-pyrrolidine-1-carbonyl)-cyclopentanecarboxylic acid (1-cyano-cyclopropyl)-amide]"
4,0.2,"CO[C@@H]1C[C@H](S(=O)(=O)c2ccc(-c3cncc(S(C)(=O)=O)c3)cc2C(F)(F)F)C[C@H]1C(=O)NC1(C#N)CC1 (racemic) [Example 83, (1R,2R,4R) and (1S,2S,4S)-4-[4-(5-Methanesulfonyl-pyridin-3-yl)-2-trifluoromethyl-benzenesulfonyl]-2-methoxy-cyclopentanecarboxylic acid (1-cyano-cyclopropyl)-amide]"
5,1.4,"CO[C@@H]1C[C@H](S(=O)(=O)c2ccc(-c3ccc(F)cc3F)cc2C(F)(F)F)C[C@H]1C(=O)NC1(C#N)CC1 (racemic) [Example 62, (1R,2R,4R) and (1S,2S,4S)-4-(2′,4′-Difluoro-3-trifluoromethyl-biphenyl-4-sulfonyl)-2-methoxy-cyclopentanecarboxylic acid (1-cyano-cyclopropyl)-amide]"
6,0.31,"CCNC(=O)Cn1cc(-c2ccc(S(=O)(=O)[C@H]3C[C@@H](OC)[C@H](C(=O)NC4(C#N)CC4)C3)c(C(F)(F)F)c2)cn1 (racemic) [Example 223, (1R,2R,4R) and (1S,2S,4S)-4-[4-(1-Ethylcarbamoylmethyl-1H-pyrazol-4-yl)-2-trifluoromethyl-benzenesulfonyl]-2-methoxy-cyclopentanecarboxylic acid (1-cyano-cyclopropyl)-amide]"
7,3.4,"N#CC1(NC(=O)[C@@H]2C[C@@H](S(=O)(=O)c3ccccc3Cl)C[C@H]2COc2ccc(Cl)cc2)CC1 (single isomer, unassigned) [Example 70]"
8,0.6,"CO[C@@H]1C[C@H](S(=O)(=O)c2ccc(-c3ccnnc3)cc2C(F)(F)F)C[C@H]1C(=O)NC1(C#N)CC1 (racemic) [Example 110, (1R,2R,4R) and (1S,2S,4S)-2-Methoxy-4-(4-pyridazin-4-yl-2-trifluoromethyl-benzenesulfonyl)-cyclopentanecarboxylic acid (1-cyano-cyclopropyl)-amide]"
9,24.8,"CO[C@@H]1C[C@H](S(=O)(=O)c2ccc(F)cc2Cl)C[C@H]1C(=O)NC1(C#N)CC1 (racemic) [Example 56, (1R,2R,4R) and (1S,2S,4S)-4-(2-Chloro-4-fluoro-benzenesulfonyl)-2-methoxy-cyclopentanecarboxylic acid (1-cyano-cyclopropyl)-amide]"
10,0.2,"CO[C@@H]1C[C@H](S(=O)(=O)c2ccc(-c3cc(C)sc3C)cc2C(F)(F)F)C[C@H]1C(=O)NC1(C#N)CC1 (racemic) [Example 87, (1R,2R,4R) and (1S,2S,4S)-4-[4-(2,5-Dimethyl-thiophen-3-yl)-2-trifluoromethyl-benzenesulfonyl]-2-methoxy-cyclopentanecarboxylic acid (1-cyano-cyclopropyl)-amide]"
11,11.1,"N#CC1(NC(=O)[C@@H]2C[C@@H](S(=O)(=O)c3ccc(F)cc3Cl)C[C@H]2COc2ccncc2)CC1 [Example 163, (1R,2R,4S)-4-(2-Chloro-4-fluoro-benzenesulfonyl)-2-(pyridin-4-yloxymethyl)-cyclopentanecarboxylic acid (1-cyano-cyclopropyl)-amide]"
12,0.007,"CC(C)N1CCN(c2ccc(S(=O)(=O)[C@H]3C[C@@H](OC4CCCC4)[C@H](C(=O)NC4(C#N)CC4)C3)c(C(F)(F)F)c2)CC1 (racemic) [Example 229, (1R,2R,4R) and (1S,2S,4S)-2-Cyclopentyloxy-4-[4-(4-isopropyl-piperazin-1-yl)-2-trifluoromethyl-benzenesulfonyl]-cyclopentanecarboxylic acid (1-cyano-cyclopropyl)-amide]"
13,1,"N#CC1(NC(=O)[C@@H]2C[C@@H](S(=O)(=O)c3ccccc3)C[C@H]2C(=O)N2CCC(O)CC2)CC1 [Example 13, (1R,2R,4R)-4-Benzenesulfonyl-2-(4-hydroxy-piperidine-1-carbonyl)-cyclopentanecarboxylic acid (1-cyano-cyclopropyl)-amide]"
14,14.7,"CC(C)(O[C@@H]1C[C@H](S(=O)(=O)c2ccccc2Cl)C[C@H]1C(=O)NC1(C#N)CC1)c1ccc(Cl)cc1 (racemic) [Example 244, (1R,2R,4R) and (1S,2S,4S)-2-(2-(4-chlorophenyl)propan-2-yloxy)-4-(2-chlorophenylsulfonyl)-N-(1-cyanocyclopropyl)cyclopentanecarboxamide]"
15,0.7,"CO[C@@H]1C[C@H](S(=O)(=O)c2ccc(-c3cncc(F)c3)cc2C(F)(F)F)C[C@H]1C(=O)NC1(C#N)CC1 (racemic) [Example 84, (1R,2R,4R) and (1S,2S,4S)-4-[4-(5-Fluoro-pyridin-3-yl)-2-trifluoromethyl-benzenesulfonyl]-2-methoxy-cyclopentanecarboxylic acid (1-cyano-cyclopropyl)-amide]"
16,345,"N#CCNC(=O)[C@@H]1CC[C@H](S(=O)(=O)c2ccccc2Cl)C1 (racemic) [Example 43, 3-(2-Chloro-benzenesulfonyl)-cyclopentanecarboxylic acid cyanomethyl-amide]"
17,1010,"COC[C@@H]1C[C@@H](S(=O)(=O)c2ccccc2Cl)C[C@H]1C(=O)NC1(C#N)CC1 (single isomer, unassigned) [Example 106]"
18,4.99,"N#CC1(NC(=O)[C@@H]2C[C@@H](S(=O)(=O)c3ccccc3Cl)C[C@H]2OCc2ccc(Cl)cc2F)CC1 (racemic) [Example 252, (1R,2R,4R) and (1S,2S,4S)-4-(2-Chloro-benzenesulfonyl)-2-(4-chloro-2-fluoro-benzyloxy)-cyclopentanecarboxylic acid (1-cyano-cyclopropyl)-amide]"
19,61.5,"N#CC1(NC(=O)[C@@H]2C[C@@H](S(=O)(=O)c3ccc(F)cc3Cl)C[C@H]2CF)CC1 [Example 157, (1R,2R,4R)-4-(2-Chloro-4-fluoro-benzenesulfonyl)-2-fluoromethyl-cyclopentanecarboxylic acid (1-cyano-cyclopropyl)-amide]"
20,2.15,"N#CC1(NC(=O)[C@@H]2C[C@@H](S(=O)(=O)c3ccc(F)cc3Cl)C[C@H]2C(=O)N2CCC(F)(F)C2)CC1 [Example 186, (1R,2R,4R)-4-(2-Chloro-4-fluoro-benzenesulfonyl)-2-(3,3-difluoro-pyrrolidine-1-carbonyl)-cyclopentanecarboxylic acid (1-cyano-cyclopropyl)-amide]"
